Measured values from US8394971B2, “Indole derivatives as selective androgen receptor modulators (SARMS)” (Janssen Pharmaceutica N.V., priority 2004, dated 2013).
Values joined by “and” are separate entries in the source; they are usually repeats but may differ in a detail not shown here. Identical values can stand only once.

Experiments:
[1] = target: T1, androgen receptor (adenovirus AdEasy+rAR in COS-7 cells) (Rattus norvegicus, UniProt P15207); assay: COS-7 Whole-Cell Androgen Receptor Binding Assay, Adenovirus Transduction; conditions: for inhibition at 3 µM / % Inhibition: COS binding, 3000 nM unless otherwise noted
T1 construct: expressed in transfected cells
T1 sequence (P15207 1-902): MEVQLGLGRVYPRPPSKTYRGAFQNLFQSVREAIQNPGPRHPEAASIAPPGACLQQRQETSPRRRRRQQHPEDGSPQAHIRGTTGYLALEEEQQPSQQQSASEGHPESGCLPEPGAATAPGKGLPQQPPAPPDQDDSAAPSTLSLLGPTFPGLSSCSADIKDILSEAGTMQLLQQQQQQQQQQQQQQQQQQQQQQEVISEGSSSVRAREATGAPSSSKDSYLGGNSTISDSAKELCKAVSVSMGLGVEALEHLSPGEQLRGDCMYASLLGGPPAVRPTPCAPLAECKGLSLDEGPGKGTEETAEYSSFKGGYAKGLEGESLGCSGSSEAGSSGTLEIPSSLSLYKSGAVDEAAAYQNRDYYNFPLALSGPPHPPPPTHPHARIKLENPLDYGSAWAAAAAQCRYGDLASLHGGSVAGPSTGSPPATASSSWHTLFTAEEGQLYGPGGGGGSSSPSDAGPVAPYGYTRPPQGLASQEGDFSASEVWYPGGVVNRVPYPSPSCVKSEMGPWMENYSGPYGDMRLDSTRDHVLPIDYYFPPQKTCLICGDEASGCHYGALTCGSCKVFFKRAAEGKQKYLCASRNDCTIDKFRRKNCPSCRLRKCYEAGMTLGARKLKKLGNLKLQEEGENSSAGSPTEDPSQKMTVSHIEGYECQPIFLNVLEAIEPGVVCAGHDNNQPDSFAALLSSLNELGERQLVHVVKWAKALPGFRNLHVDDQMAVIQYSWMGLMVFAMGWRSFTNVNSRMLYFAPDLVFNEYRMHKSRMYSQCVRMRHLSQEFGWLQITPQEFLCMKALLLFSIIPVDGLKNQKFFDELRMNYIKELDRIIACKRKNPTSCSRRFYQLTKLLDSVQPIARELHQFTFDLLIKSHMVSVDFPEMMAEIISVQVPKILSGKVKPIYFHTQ
Protocol: COS-7 cells were plated in 96-well plates at 20,000 cells per well, in a solution of DMEM/F12 (GIBCO) containing 10% (v/v) charcoal-treated fetal bovine serum (Hyclone) and lacking phenol red. The cells were then incubated overnight at 37° C. in 5% (v/v) humidified CO2.
Test compound solutions were prepared by diluting the test compound in 100% (v/v) DMSO, if necessary.
Next, 1 mL of DMEM/F12 lacking phenol red was pipetted into each of the wells of a 2-mL 96-well assay block. […] The wells were carefully mixed by pipette.
In a 15 mL or 50 mL sterile centrifuge tube, a dilution in DMEM/F12 of the adenovirus AdEasy+rAR at a moi of 1:50 per well was prepared.
The medium was removed from the 96-well plates by inversion and the plates dried very briefly, inverted, on a sterile towel. As soon as possible after medium removal, 40 μL of the diluted test compound was added to each well, in duplicate. […] The plates were then incubated for 48 hours at 37° C. in 5% (v/v) humidified CO2.
The medium was removed from the above incubated plates by inversion and dried. Each well was then washed with 0.35 mL of 1×PBS. The PBS was then removed from the plates by inversion and the plates dried.
To each well was then added 50 μL of 0.5% (v/v) Triton X-100 (Sigma) in 1×PBS and the plates placed on a rotary shaker for 5 min. The contents of each well were then transferred to an OptiPlate-96 (Packard) scintillation plate. To each well was then added 0.2 mL of Microscint-20 (Packard) and the wells counted on a TopCount (Packard).
[…] Counts per well were measured and percents of inhibition determined. […] Counts per well were measured and IC50s determined by linear regression.

[2] = target: T2, androgen receptor (adenovirus AdEasy+rAR in L929 cells) (Rattus norvegicus, UniProt P15207); assay: L929 Androgen Receptor Functional Assay, Adenovirus Transduction; assay type: cell-based; conditions: for % Activity: L929 agonist testing
T2 construct: expressed in transfected cells
T2 sequence (P15207 1-902): T1 sequence (P15207 1-902)
Protocol: L929 cells were plated in 96-well plates at 20,000 cells per well, in DMEM/F12 (GIBCO) containing 10% (v/v) charcoal-treated fetal bovine serum (Hyclone) and lacking phenol red. The plates were then incubated overnight at 37° C. in 5% (v/v) humidified CO2.
Test compound dilutions were prepared in 100% (v/v) DMSO, if necessary. Each dilution was made to 1250× the final desired assay concentration.
First, 2 mL of DMEM/F12 lacking phenol red was pipetted into the wells of a 2-mL 96-well assay block. Next, 4 μL of the 1250× test compound dilutions were pipetted into each well of the assay block. The mixtures within the well were then carefully mixed by pipette.
In a 15 mL or 50 mL sterile centrifuge tube, a 2.5 nM (2.5×) dilution of R1881 (methyl-trienolone) in DMEM/F12 lacking phenol red was prepared.
In a second 15 mL or 50 mL centrifuge tube a solution containing an equal volume of DMEM to the first and an equal volume of 100% (v/v) DMSO to the volume of R1881 used in the first tube was prepared.
In a 15 mL or 50 mL sterile centrifuge tube, a dilution in DMEM/F12 of the adenovirus AdEasy+rAR at an moi of 1:500 per well was prepared.
The medium was removed from the 96-well plates by inversion and dried, inverted, very briefly. As soon as possible after medium removal, 40 μL of the diluted unlabeled test compound was added to each well, in duplicate. To each well designated for antagonist testing was added 40 μL of the 2.5 nM R1881 dilution to the wells for antagonist testing. To each well designated for agonist testing was added 40 μL of the DMSO dilution. Then 20 μL of the diluted adenovirus were added to all wells. The plates were incubated for 48 hours at 37° C. in 5% (v/v) humidified CO2.
To each well was added 100 μL of Steady-Glo luciferase assay substrate (Promega) and the plates were placed on a rotary shaker for 1 min. The plates were then incubated at room temperature in the dark for one hour. The contents of each well were then transferred to a white microtiter plate (Packard) and read on a Luminoskan Ascent (Thermo Lab Systems).
L929 AR percent activity was determined by testing dilutions of the test compound using a concentration of 3000 nM unless otherwise noted. L929 percent inhibition was determined by testing dilutions of the test compound using a concentration of 3000 nM. […] Luciferase activity per well were measured and EC50s and IC50s determined by linear regression.

[3] = test system: testosterone-enhanced ventral prostate and seminal vesicle weights in castrated male Sprague Dawley rats; assay: Ventral Prostate and Seminal Vesicle Weight In Vivo Assay; parameters: species or system rat; conditions: immature castrated rats; once daily for five days, usually orally at 40 mg/kg, with testosterone propionate 2 mg/kg s.c.
Summary of the method: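 Immature (~50 g) castrated Sprague Dawley rats dosed once daily for five days with compound (usually oral, 40 mg/kg, cyclodextrin or methylcellulose vehicle) plus testosterone propionate 2 mg/kg s.c. Wet ventral prostate and seminal vesicle weights taken on day six; activity judged by prostate weight or body-weight-adjusted % inhibition.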

| Compound | inhibition at 3 µM [1] [%] | % Inhibition [1] | % Activity ([2]; 3000 nM) [%] | active / inactive (inhibition of testosterone-enhanced prostate weight) [3] | further results |
| --- | --- | --- | --- | --- | --- |
| CCS(=O)(=O)CC(C)(O)c1[nH]c2cc(C(F)(F)F)c(C#N)cc2c1C (racemic) [compound 246] | 70 | – | – | – | – |
| CN(C)c1ccccc1SCC(C)(O)c1cc2cc(Cl)c(C(F)(F)F)cc2[nH]1 (centres unmarked) [compound 127] | – | 41% and 74% | −5 | inactive | – |
| CCSCC(C)(O)c1cc2cc(C#N)c(C(F)(F)F)cc2[nH]1 (centres unmarked) [compound 209] | 61 | – | – | active | % Activity ([2]; @ 8000 nM): −3 @ 8000 nM % |
| CC(O)(CS(C)(=O)=O)c1cc2cc(Cl)c(C(F)(F)F)cc2[nH]1 (centres unmarked) [compound 138] | 78 | – | 0 | inactive | – |
| CCSCC(C)(O)c1cc2cc(F)c(C(F)(F)F)cc2[nH]1 (centres unmarked) [compound 159] | 90 | – | 2 | active | – |
| O=[N+]([O-])c1cc2cc(C3(O)CCSCC3)[nH]c2cc1C(F)(F)F [compound 17] | – | – | – | inactive | IC50 [1]: > 1.5 µM |
| CCSCC(C)(OC)c1cc2cc(C#N)c(C(F)(F)F)cc2n1C (centres unmarked) [compound 235] | 78 | – | 3 | inactive | – |
| CSCC(C)(O)c1cc2cc([N+](=O)[O-])c(C(F)(F)F)cc2[nH]1 (centres unmarked) [compound 139] | 94 | 97% | – | active | % Activity ([2]; 3000 nM, 3 µM): 0% and 1% |
| CCSCC(C)(O)c1[nH]c2cc(C(F)(F)F)c([N+](=O)[O-])cc2c1C#N (centres unmarked) [compound 242] | 92 | – | – | inactive | – |
| CC(O)(CSc1ccc(O)cc1)c1cc2cc(Cl)c(C(F)(F)F)cc2[nH]1 (centres unmarked) [compound 120] | 86 | – | −5 | – | – |
| CCSCC(C)(O)c1cc2cc(F)c(Cl)cc2[nH]1 (racemic) [compound 206] | – | −40% | 5 | active | – |
| CCC(O)(CSCC(F)(F)F)c1cc2cc(Cl)c(C(F)(F)F)cc2[nH]1 (centres unmarked) [compound 192] | 86 | – | 8 | active | – |
| CCSCC(C)(O)c1cc2cc(Cl)c(C(F)(F)F)cc2[nH]1 (centres unmarked) [compound 152] | 39 | – | – | inactive | – |
| CCSCC(C)(O)c1cc2cc([N+](=O)[O-])c(C(F)(F)F)cc2[nH]1 (single isomer, unassigned) [compound 149] | – | 63% and 78% | – | – | % Activity ([2]; 3000 nM, 3 µM): 2% |
| COc1ccc(S(=O)(=O)CC(C)(O)c2cc3cc(Cl)c(C(F)(F)F)cc3n2S(C)(=O)=O)cc1 (centres unmarked) [compound 128] | 21 | – | −4 | – | – |
| CC(O)(CS(C)(=O)=O)c1cc2cc([N+](=O)[O-])c(C(F)(F)F)cc2[nH]1 (centres unmarked) [compound 148] | – | 32% | 0 | – | – |
| CC(O)(CS(C)(=O)=O)c1cc2cc(Cl)c(C(F)(F)F)cc2n1S(C)(=O)=O (centres unmarked) [compound 137] | 73 | – | 0 | – | – |
| CCSCC(C)(O)c1cc2cc([N+](=O)[O-])c(C(F)(F)F)cc2[nH]1 (single isomer, unassigned) [compound 150] | – | 81% and 74% | – | – | % Activity ([2]; @ 8000 nM): 0 @ 8000 nM % |
| CCSCC(C)(O)c1cc2cc(C#N)c(Cl)cc2[nH]1 (centres unmarked) [compound 225] | 82 | – | 1 | – | – |
| CC(O)(CSc1ccc([N+](=O)[O-])cc1)c1cc2cc(Cl)c(C(F)(F)F)cc2[nH]1 (centres unmarked) [compound 122] | 66 | – | 10 | – | – |
| CC(O)(CSc1ccc(C(=O)O)cc1)c1cc2cc(Cl)c(C(F)(F)F)cc2n1S(C)(=O)=O (centres unmarked) [compound 132] | 8.7 | – | −5 | – | – |
| CSCC(C)(O)c1cc2cc([N+](=O)[O-])c(C(F)(F)F)cc2[nH]1 (single isomer, unassigned) [compound 145] | – | 84.7% | – | – | % Activity ([2]; 3000 nM, 3 µM): 1% |
| CCS(=O)(=O)CC(C)(O)c1cc2cc([N+](=O)[O-])c(C(F)(F)F)cc2[nH]1 (centres unmarked) [compound 151] | – | 55% | – | – | % Activity ([2]; @ 8000 nM): −1 @ 8000 nM % |
| CC(O)(CS(=O)(=O)c1ccc(O)cc1)c1cc2cc(Cl)c(C(F)(F)F)cc2[nH]1 (centres unmarked) [compound 121] | 72 | – | −4 | – | – |
| CCSCC(C)(O)c1[nH]c2cc(C(F)(F)F)c([N+](=O)[O-])cc2c1C#N (single isomer, unassigned) [compound 247] | – | 90% | – | inactive | – |
| CC(O)(CS(C)(=O)=O)c1cc2cc([N+](=O)[O-])c(C(F)(F)F)cc2[nH]1 (centres unmarked) [compound 147] | – | 6.1% | 0 | – | – |
| CCSCC(C)(O)c1cc2cc(Cl)ccc2n1S(C)(=O)=O (racemic) [compound 154] | – | 50% | 2 | – | % Inhibition ([2]; L929 antagonist testing with R1881, 3000 nM): 7% |
| CC(O)(CSc1ccc(C(=O)O)cc1)c1cc2cc(Cl)c(C(F)(F)F)cc2[nH]1 (centres unmarked) [compound 133] | 65 | – | −4 | – | – |
